# According to patent US8541584B2, “3-(1,2,3-triazol-4-yl) pyrrolo [2,3-b] pyridine derivatives” (Merck Patent GmbH, priority 2009, dated 2013):
# Key:
# PDK1 = target: T1, PDK1 (Homo sapiens, UniProt O15530); assay: Test for the inhibition of PDK1 (384-well flashplate, 33P-ATP); type: biochemical; conditions: His6-PDK1 3.4 nM, 4 μM ATP, 30° C., 60 min
# T1 construct: His6 (N)
# T1 sequence (O15530 51-556 limits assumed): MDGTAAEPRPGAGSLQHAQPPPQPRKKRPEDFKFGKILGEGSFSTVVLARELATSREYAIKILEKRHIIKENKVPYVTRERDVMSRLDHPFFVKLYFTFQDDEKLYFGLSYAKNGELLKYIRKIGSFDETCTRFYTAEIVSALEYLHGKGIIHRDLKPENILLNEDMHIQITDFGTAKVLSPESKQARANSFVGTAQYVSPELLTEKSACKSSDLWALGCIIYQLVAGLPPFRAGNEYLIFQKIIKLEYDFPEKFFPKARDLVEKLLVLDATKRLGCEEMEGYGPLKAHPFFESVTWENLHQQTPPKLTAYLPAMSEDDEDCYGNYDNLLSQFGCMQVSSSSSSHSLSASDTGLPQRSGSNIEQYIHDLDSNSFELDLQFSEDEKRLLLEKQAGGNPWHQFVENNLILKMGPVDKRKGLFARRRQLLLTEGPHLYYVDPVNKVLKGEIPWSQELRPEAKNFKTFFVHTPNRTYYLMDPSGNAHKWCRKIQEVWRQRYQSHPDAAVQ
# Procedure: 4.0 Test for the Inhibition of PDK1
# The experimental batches are carried out in a flashplate system with 384 wells/microtitration plate.
# In each case, the PDK1 sample His6-PDK1(1-50)(3.4 nM), the PDK1 substrate biotin-bA-bA-[…] (400 nM), 4 μM ATP (with 0.2 μCi of ^33P-ATP/well) and the test substance in 50 μl of conventional experimental solution per well are incubated at 30° C. for 60 min. The test substances are employed in corresponding concentrations (if desired in a dilution series). The control is carried out without test substance. The reaction is stopped using standard methods and washed. The activity of the kinase is measured via the incorporated radioactivity in top count. In order to determine the non-specific kinase reaction (blank value), the experimental batches are carried out in the presence of 100 nM staurosporin.
# The radioactivity (decompositions per minute) of the blank value (no use of test substance in the presence of staurosporin) is subtracted from all other radioactivity values. The controls (kinase activity without test substance) are set equal to 100 percent and all other radioactivity values (after subtracting the blank value) are expressed set in relation thereto (for example in % of the control).
# IC50 values (50% inhibition) are determined with the aid of statistics programmes, such as, for example, RS1.
# [1] = tested on: PDK1 kinase activity (P-T308-PKB) in PC3 cells; assay: Cellular testing of PDK1 kinase inhibitors (Luminex assay, P-T308-PKB in PC3 cells); type: cell-based; conditions: Homo sapiens, PC-3, 0.5 h, serum-free, 30 min with test substance
# Procedure: Description of the Method for Cellular Testing of PDK1 Kinase Inhibitors
# The cellular assay for determination of the PDK1 kinase activity is performed as Luminex assay in the 96-well format. PC3 cells are sown at 20,000 cells per well in 100 μl of medium (45% of […]/45% of Ham's F12/10% of FCS) and incubated under serum-free conditions on the following day for 30 min with serial dilution of the test substance (7 concentrations). The cells are subsequently lysed using 90 μl of lysis buffer (20 mM Tris/HCl pH 8.0, 150 mM NaCl, 1% of NP40, 10% of glycerol, 1% of phosphatase inhibitor I, 1% of phosphatase inhibitor II, 0.1% of protease inhibitor Cocktail III, 0.01% of benzonase) per well, and the lysates are separated off from insoluble cell constituents by means of centrifugation through a 96-well filter plate (0.65 μm). The lysates are incubated overnight at 4° C. with shaking with Luminex beads to which an anti-total PKB antibody has been coupled. Detection is carried out on the following day by addition of a P-T308-PKB antibody and a species-specific PE-labelled secondary antibody. The determination of P-T308-PKB is carried out by measurement in the Luminex100 instrument by determination of 100 events per cavity in a measurement time of 60 sec. As pharmacological blank, the signals obtained from cells which have been treated with 10 μM staurosporin are subtracted from all other batches. The control value used for maximum phosphorylation of PKB on T308 are the signals from cells which have been treated only with the solvent (0.3% of DMSO). The values of the batches treated with test substance are calculated from this as percent of control, and IC50 values are determined by means of RS1.
# [2] = target: T2, TANK binding kinase (TBK1) (Homo sapiens, UniProt Q9UHD2); assay: TBK1 kinase test (384-well flashplate); type: biochemical; conditions: 0.6 nM TBK1, 10 μM ATP, 30° C., 120 min
# T2 sequence (Q9UHD2 1-729): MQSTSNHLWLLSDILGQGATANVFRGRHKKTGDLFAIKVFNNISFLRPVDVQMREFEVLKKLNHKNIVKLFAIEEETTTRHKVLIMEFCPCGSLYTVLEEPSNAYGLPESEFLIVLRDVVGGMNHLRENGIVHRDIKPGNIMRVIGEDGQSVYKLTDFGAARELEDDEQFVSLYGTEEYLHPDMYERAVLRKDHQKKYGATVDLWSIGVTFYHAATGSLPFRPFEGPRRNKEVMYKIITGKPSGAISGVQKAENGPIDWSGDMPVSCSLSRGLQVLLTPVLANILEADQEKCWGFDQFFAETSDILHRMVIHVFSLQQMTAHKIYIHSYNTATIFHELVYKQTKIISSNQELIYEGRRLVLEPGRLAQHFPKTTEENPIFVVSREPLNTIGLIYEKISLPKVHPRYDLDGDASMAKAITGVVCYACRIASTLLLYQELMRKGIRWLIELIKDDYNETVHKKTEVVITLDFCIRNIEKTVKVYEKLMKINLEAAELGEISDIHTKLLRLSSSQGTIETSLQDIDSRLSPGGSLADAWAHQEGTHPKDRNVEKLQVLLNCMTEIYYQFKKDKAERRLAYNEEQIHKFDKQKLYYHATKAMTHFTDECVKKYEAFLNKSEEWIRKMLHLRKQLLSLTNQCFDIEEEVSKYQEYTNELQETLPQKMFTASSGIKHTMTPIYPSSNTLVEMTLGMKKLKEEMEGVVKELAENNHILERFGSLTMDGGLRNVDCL
# Procedure: The kinase assay is performed as 384-well flashplate assay. 0.6 nM TANK binding kinase (TBK1), 800 nM biotinylated MELK-derived peptide (biotin-Ah-Ah-[…]) and 10 μM ATP (with 0.25 μCi of ^33P-ATP/well) are incubated in a total volume of 50 μl (10 mM MOPS, 10 mM magnesium acetate, 0.1 mM EGTA, 1 mM DTT, 0.02% of Brij35, 0.1% of BSA, pH 7.5) with or without test substance at 30° C. for 120 min. The reaction is stopped using 25 μl of 200 mM EDTA solution, filtered off with suction after 30 min at room temperature, and the wells are washed 3 times with 100 μl of 0.9% NaCl solution. The non-specific proportion of the kinase reaction (blank) is determined using 100 nM staurosporine. Radioactivity is measured in the Topcount. IC50 values are calculated using RS1.
SMILES,IC50 (PDK1) [nM],IC50 [1] [nM],IC50 [2] [nM]
"Cn1cc(-c2cnc3[nH]cc(-c4cn(Cc5ccc6ncccc6c5)nn4)c3c2)cn1 [Compound A29, 6-{4-[5-(1-Methyl-1H-pyrazol-4-yl)-1H-pyrrolo[2,3-b]pyridin-3-yl]-1,2,3-triazol-1-ylmethyl}quinoline]",0.5 to 1000,1000 to 10000,0.5 to 1000
"Cn1cc(-c2cnc3[nH]cc(-c4cn(Cc5cccc(F)c5F)nn4)c3c2)cn1 [Compound A25, 3-[1-(2,3-Difluorobenzyl)-1H-1,2,3-triazol-4-yl]-5-(1-methyl-1H-pyrazol-4-yl)-1H-pyrrolo-[2,3-b]pyridine]",0.5 to 1000,0.5 to 1000,0.5 to 1000
"Cn1cc(-c2cnc3[nH]cc(-c4cn(Cc5ccccc5F)nn4)c3c2)cn1 [Compound A17, 3-[1-(2-Fluorobenzyl)-1H-1,2,3-triazol-4-yl]-5-(1-methyl-1H-pyrazol-4-yl)-1H-pyrrolo-[2,3-b]pyridine]",0.5 to 1000,0.5 to 1000,0.5 to 1000
"Cc1cccc(Cn2cc(-c3c[nH]c4ncc(-c5cnn(C)c5)cc34)nn2)c1 [Compound A7, 3-[1-(3-Methylbenzyl)-1H-1,2,3-triazol-4-yl]-5-(1-methyl-1H-pyrazol-4-yl)-1H-pyrrolo[2,3-b]pyridine]",0.5 to 1000,1000 to 10000,0.5 to 1000
"Cn1cc(-c2cnc3[nH]cc(-c4cn(Cc5ccncc5)nn4)c3c2)cn1 [Compound A9, 5-(1-Methyl-1H-pyrazol-4-yl)-3-(1-pyridin-4-ylmethyl-1H-1,2,3-triazol-4-yl)-1H-pyrrolo-[2,3-b]pyridine]",0.5 to 1000,1000 to 10000,0.5 to 1000
"CC(c1ccccc1C(F)(F)F)n1cc(-c2c[nH]c3ncc(-c4cnn(C)c4)cc23)nn1 (stereo not drawn) [Compound A20, 5-(1-Methyl-1H-pyrazol-4-yl)-3-{1-[1-(2-trifluoromethylphenyl)ethyl]-1H-1,2,3-triazol-4-yl}-1H-pyrrolo[2,3-b]pyridine]",0.5 to 1000,1000 to 10000,0.5 to 1000
